Key:
[1] = logP determination (acidic / HCOOH and neutral); conditions: for chromatographic logP: acidic, HCOOH (formic acid)
[2] = tested on: Uromyces appendiculatus; experiment: Uromyces test (bean)/protective; format: in vivo; conditions: protective, active compound concentration 10 ppm, evaluation 10 days after inoculation
Procedure: Uromyces Test (Bean)/Protective [table] To produce a suitable preparation of active compound, 1 part by weight of N-ethyl-N-methyl-N′-[4-phenoxy-2,5-xylyl]formamidine (according to formula (1)) is mixed with the stated amounts of solvent and emulsifier, and the concentrate is diluted with water to the desired concentration. To test for protective activity, young plants are sprayed with the active compound preparation at the stated application rate. After the spray coating has dried on, the plants are inoculated with an aqueous spore suspension of the bean rust pathogen Uromyces appendiculatus and then remain in an incubation cabin at about 20° C. and 100% relative atmospheric humidity for 1 day. The plants are then placed in a greenhouse at about 21° C. and a relative atmospheric humidity of about 90%. Evaluation is carried out 10 days after the inoculation. 0% means an efficacy which corresponds to that of the control, whereas an efficacy of 100% means that no infection is observed.

[3] = tested on: Sphaerotheca fuliginea; experiment: Sphaerotheca test (cucumber)/protective; format: in vivo; conditions: protective, active compound concentration 100 ppm, evaluation 7 days after inoculation
Procedure: (§1) Sphaerotheca Test (Cucumber)/Protective [table] To produce a suitable preparation of active compound, 1 part by weight of N-ethyl-N-methyl-N′-[4-phenoxy-2,5-xylyl]formamidine (according to formula (1)) is mixed with the stated amounts of solvent and emulsifier, and the concentrate is diluted with water to the desired concentration. To test for protective activity, young plants are sprayed with the active compound preparation at the stated application rate. After the spray coating has dried on, the plants are inoculated with an aqueous spore suspension of Sphaerotheca fuliginea. The plants are then placed in a greenhouse at about 23° C. and a relative atmospheric humidity of about 90%. Evaluation is carried out 7 days after the inoculation. 0% means an efficacy which corresponds to that of the control, whereas an efficacy of 100% means that no infection is observed.

[4] = tested on: Podosphaera leucotricha; experiment: Podosphaera test (apple)/protective; format: in vivo; conditions: protective, active compound concentration 100 ppm, evaluation 10 days after inoculation
Procedure: as §1, with “Podosphaera” for “Sphaerotheca”, “(Apple)/Protective” for “(Cucumber)/Protective”, “the apple mildew pathogen Podosphaera leucotricha.” for “Sphaerotheca fuliginea.”, “70%.” for “90%.”, “10” for “7”

[5] = tested on: Erysiphe graminis f. sp. hordei; experiment: Erysiphe test (barley)/protective; format: in vivo; conditions: protective, active compound concentration 500 ppm, evaluation 7 days after inoculation
Procedure: Erysiphe Test (Barley)/Protective [table] To produce a suitable preparation of active compound, 1 part by weight of N-ethyl-N-methyl-N′-[4-phenoxy-2,5-xylyl]formamidine (according to formula (1)) is mixed with the stated amounts of solvent and emulsifier, and the concentrate is diluted with water to the desired concentration. To test for protective activity, young cereal plants are sprayed with the active compound preparation at the stated application rate. 1 day after the treatment, the plants are inoculated with spores of Erysiphe graminis f. sp. hordei. The plants are then placed in a greenhouse at 70% relative atmospheric humidity and a temperature of 18° C. Evaluation is carried out 7 days after the inoculation. 0% means an efficacy which corresponds to that of the control, whereas an efficacy of 100% means that no infection is observed.

Row | chromatographic logP [1] | logP [1] | SMILES | efficacy [2] [%] | efficacy [3] [%] | efficacy [4] [%] | efficacy [5] [%]
1 | 1.92 | – | Cc1cc(Oc2ccccc2)c(C)cc1N [4-phenoxy-2,5-xylidine] | – | – | – | –
2 | 1.87 | 4.67 | CCN(C)C=Nc1cc(C)c(Oc2ccccc2)cc1C [(1), N-ethyl-N-methyl-N′-[4-phenoxy-2,5-xylyl]formamidine] | ≥ 70 | ≥ 70 | ≥ 70 | ≥ 70
